Measurements as given in patent US7396645B1, “Cholestasis signature” (priority 2002, dated 2008).
Marks after values point to notes of the source that are not given here.

Tested on: male Sprague-Dawley rats
Conditions: rat, in vivo, po
Text: Compound dosing was based on the acute dose LD50s recorded in published reference or literature sources. […] The MTD (maximum tolerated dose) was then selected as the dose at which the animals […] 5-10% body weight during the 5-day range finding study. […] In addition, the clinical observations must show no or mild clinical signs during the whole of the range-finding study. At the next highest dose, signs and symptoms of adverse effects and exceeding those of the MTD should be seen to occur. Should these criteria not be met, the range-finding study is repeated using a modified dose range.
(§1) After determination of the MTD and FED for a compound, each compound was dissolved in a vehicle for administration on day 1 of the study (additional daily doses were stored as frozen aliquots from this initial formulation). Each compound was administered to three individual male Sprague-Dawley rats for each of the two doses (MTD and FED) for one of four different times (0.25 day, 1 day, 3 days, and 5 days), yielding a total of up to 24 animals per compound study. Vehicle choice was based on solubility of the compound, effect of food on adsorption, and the vehicles used in the literature reports examined during the FED selection investigations, described above. Generally, the route and vehicle in which the FED was defined are used. When there was a choice of routes and vehicles, oral routes were chosen over injection routes. Many compounds, especially oncolytics, are only administerable intravenously. In such cases, the compound was administered as an intravenous formulation into the tail vein. Orally administered compounds were given dissolved in either water, 1% carboxymethycellulose (CMC) or corn oil. Intravenously and intraperitoneally administered compounds were given in 0.9% saline. Subcutaneously administered compounds were given in corn oil. Animal body weights were determined at 1 day and, where appropriate, at 4 days, before necropsy, and clinical observations were made on a daily basis. Control animals were dosed with vehicle only. Three male animals were used for each dose and time combination used for the compound treatment.
(§2) Tissue Harvest and Handling: After the allocated treatment time, the tissues from the animals were harvested. […] All the tissues collected were divided to provide samples for histopathological analyses, and the remainder of each tissue was then snap-frozen. […] The parameters were measured using a Hitachi-911 clinical chemistry analysis instrument according to the manufacturer's instructions. The following blood constituents were measured: Blood Urea Nitrogen (BUN), Creatinine (CRE), Glucose (GLU), Alanine Transaminase (ALT), Aspartate Aminotrans-ferase (AST), Alkaline Phosphatase (ALP), Total Bilirubin (TBI), Sodium (SOD), Potassium (POT), Chloride (CHL), Phosphorus (PHO), Total Protein (TPR), Albumin (ALB), Cholesterol (CHO), Creatine Phosphokinase (CPK), Lactate Dehydrogenase (LDH), Carbon Dioxide (CO2), Uric Acid (UA), and Lipase. […] The parameters were measured using a Baker 9000 blood cell analysis instrument according to the manufactures instructions. The following blood constituents were measured: Leukocyte count (WBC), Differential Leukocyte counts, Erythrocyte count (RBC), Hemoglobin concentration (HGB), Hematocrit (HCT), Mean Corpuscular Volume (MCV), Mean Corpuscular Hemoglobin (MCH), Mean Corpuscular Hemoglobin Concentration (MCC), Thrombocyte Count (PLC). Histopathology: Histopathological analyses of hematoxylin and eosin-stained tissue sections were performed and peer-reviewed by board-certified (Diplomate, American College of Veterinary Pathologists) veterinary pathologists.

Question: Which “raised serum levels of ALP and TBI compared with vehicle-treated control animals” value does the source give for `Clc1ccccc1C(c1ccccc1)(c1ccccc1)n1ccnc1` [CLOTRIMAZOLE, 1-(o-chloro-α,α-diphenylbenzyl)imidazole] here?
Answer: at least 2 fold

Question: With `CCO` [ETHANOL] as the molecule, how does the “raised serum levels of ALP and TBI compared with vehicle-treated control animals” value read?
Answer: at least 2 fold

Question: For `CC(C)c1c(C(=O)Nc2ccccc2)c(-c2ccccc2)c(-c2ccc(F)cc2)n1CC[C@@H](O)C[C@@H](O)CC(=O)O` (relative stereo) [ATORVASTATIN, (R—(R*,R*))-2-(4-fluorophenyl)-β,δ-dihydroxy-5-(1-methylethyl)-3-phenyl-4-((phenylamino)carbonyl)-1H-pyrrole-1-heptanoic acid], which “raised serum levels of ALP and TBI compared with vehicle-treated control animals” value is on record?
Answer: at least 2 fold

Same assay, conditions: rat, in vivo, po, 178 mg/kg

Question: With `Clc1ccccc1C(c1ccccc1)(c1ccccc1)n1ccnc1` [CLOTRIMAZOLE, 1-(o-chloro-α,α-diphenylbenzyl)imidazole] as the molecule, how does the “Fold change in serum alkaline phosphatase” value read?
Answer: 1.4 fold

Question: What about the “Fold change in serum alkaline phosphatase and total bilirubin” value of the same molecule?
Answer: 2.9 fold

Question: What about the “Fold change in serum total bilirubin” value of the same molecule?
Answer: 2.0 fold

Same assay, conditions: rat, in vivo, po, 3000 mg/kg

Question: How did the “Fold change in serum alkaline phosphatase” value turn out when `CCO` [ETHANOL] was run?
Answer: 1.5 fold

Question: What about the “Fold change in serum alkaline phosphatase and total bilirubin” value of the same molecule?
Answer: 3.1 fold

Question: And the “Fold change in serum total bilirubin” value?
Answer: 2.0 fold

Tested on: Cholestasis Signature
Conditions: rat liver expression data vs Cholestasis Signature; maximum score of training treatments normalised to 100; dose and time not given
Description: as §1
as §2, with “pathologists. Preparation of Enriched mRNA: Punch Biopsies were Taken from the Frozen Tissues and were completely homogenized before being processed using the MagNA Pure robot. (Roche Diagnostics Corp., Indianapolis, Ind.) in combination with the MagNA Pure LC RNA Isolation kit II (Roche Diagnostics Corp). The amount of lysis buffer was adjusted to allow 1 ml per 50 mg for liver tissue, or 1 ml per 80 mg for all other tissues. After complete homogenization and before loading of the samples into the 32-well MagNA Pure plate, the samples were syringed 5-6 times using a 20-gauge 3-ml syringe to ensure a smooth solution for robotic processing. Tissue sample processing was performed in duplicate wells (loading 150 μl of homogenized sample and 150 μl of additional lysis buffer to each well) of the MagNA Pure LC, which is programmed to extract mRNA using oligo-dT selection technology into a final elution volume of 100 μl.” for “pathologists.”

Question: For `Clc1ccc(COC(Cn2ccnc2)c2ccc(Cl)cc2Cl)c(Cl)c1` (stereo not drawn) [MICONAZOLE, 1-[2,4-dichloro-β-(2,4-dichlorobenzyloxy)phenethyl]imidazole nitrate], which “Sequence Projection Score (SPS)” value is on record?
Answer: 100**

Question: `C[C@]12CCC(=O)C=C1CC[C@@H]1[C@@H]2CC[C@@]2(C)[C@H]1CC[C@]2(C)O` [17-METHYLTESTOSTERONE] was tested. Which “Sequence Projection Score (SPS)” value did it give?
Answer: 36*

Question: `CN(C)C=O` [N,N-DIMETHYLFORMAMIDE] was tested. Which “Sequence Projection Score (SPS)” value did it give?
Answer: 27*

Question: For `ClC(Cl)(Cl)Cl` [CARBON TETRACHLORIDE], which “Sequence Projection Score (SPS)” value is on record?
Answer: 50*

Question: `CCCCCCCCc1ccc(O)cc1` [4-OCTYLPHENOL] was tested. Which “Sequence Projection Score (SPS)” value did it give?
Answer: 22

Question: `S=C=Nc1cccc2ccccc12` [1-NAPHTHYL ISOTHIOCYANATE, 1-naphthyl isothiocyanate] was tested. Which “Sequence Projection Score (SPS)” value did it give?
Answer: 90**

Same assay, conditions: rat, in vivo

Question: `Oc1c(Cl)cc(Cl)cc1Sc1cc(Cl)cc(Cl)c1O` [BITHIONOL] was tested. Which “Sequence Projection Score (SPS)” value did it give?
Answer: 23*

Question: `Clc1ccccc1C(c1ccccc1)(c1ccccc1)n1ccnc1` [CLOTRIMAZOLE, 1-(o-chloro-α,α-diphenylbenzyl)imidazole] was tested. Which “Sequence Projection Score (SPS)” value did it give?
Answer: 33*

Question: For `C#C[C@]1(OC(C)=O)CC[C@H]2[C@@H]3CCC4=CC(=O)CC[C@@H]4[C@H]3CC[C@@]21C` [NORETHINDRONE ACETATE], which “Sequence Projection Score (SPS)” value is on record?
Answer: 23*

Question: `CC(C)(Oc1ccc(CCNC(=O)c2ccc(Cl)cc2)cc1)C(=O)O` [BEZAFIBRATE] was tested. Which “Sequence Projection Score (SPS)” value did it give?
Answer: 42*

Question: With `C[C@@H]1C[C@H]2[C@@H]3CCC4=CC(=O)C=C[C@]4(C)[C@@]3(F)[C@@H](O)C[C@]2(C)[C@@]1(O)C(=O)CO` [DEXAMETHASONE] as the molecule, how does the “Sequence Projection Score (SPS)” value read?
Answer: 32*

Question: How did the “Sequence Projection Score (SPS)” value turn out when `CS(=O)(=O)c1ccc(C2=C(c3ccccc3)C(=O)OC2)cc1` [ROFECOXIB] was run?
Answer: 27*

Question: `CCOC(=O)C(C)(C)Oc1ccc(Cl)cc1` [CLOFIBRATE] was tested. Which “Sequence Projection Score (SPS)” value did it give?
Answer: 22

Question: With `CC(C)OC(=O)C(C)(C)Oc1ccc(C(=O)c2ccc(Cl)cc2)cc1` [FENOFIBRATE] as the molecule, how does the “Sequence Projection Score (SPS)” value read?
Answer: 43*

Question: For `CS(=O)(=O)Nc1ccc([N+](=O)[O-])cc1Oc1ccccc1` [NIMESULIDE], which “Sequence Projection Score (SPS)” value is on record?
Answer: 38*

Question: `CC(C)n1c(/C=C/C(O)CC(O)CC(=O)O)c(-c2ccc(F)cc2)c2ccccc21` (centres unmarked) [FLUVASTATIN] was tested. Which “Sequence Projection Score (SPS)” value did it give?
Answer: 67*

Question: For `CC[C@H](C)C(=O)O[C@H]1C[C@@H](C)C=C2C=C[C@H](C)[C@H](CC[C@@H]3C[C@@H](O)CC(=O)O3)[C@H]21` [LOVASTATIN], which “Sequence Projection Score (SPS)” value is on record?
Answer: 37*

Question: With `COCc1c(C(C)C)nc(C(C)C)c(/C=C/[C@@H](O)C[C@@H](O)CC(=O)O)c1-c1ccc(F)cc1` [CERIVASTATIN] as the molecule, how does the “Sequence Projection Score (SPS)” value read?
Answer: 36*

Question: Which “Sequence Projection Score (SPS)” value does the source give for `CCC(C)n1ncn(-c2ccc(N3CCN(c4ccc(OCC5COC(Cn6cncn6)(c6ccc(Cl)cc6Cl)O5)cc4)CC3)cc2)c1=O` (centres unmarked) [ITRACONAZOLE] here?
Answer: 17

Question: How did the “Sequence Projection Score (SPS)” value turn out when `COc1ccc2c(c1)c(CC(=O)O)c(C)n2C(=O)c1ccc(Cl)cc1` [INDOMETHACIN] was run?
Answer: 52*

Question: With `Nc1nc2nc[nH]c2c(=S)[nH]1` [THIOGUANINE] as the molecule, how does the “Sequence Projection Score (SPS)” value read?
Answer: 19

Question: `CC(C)Cc1ccc(C(C)C(=O)O)cc1` (centres unmarked) [IBUPROFEN] was tested. Which “Sequence Projection Score (SPS)” value did it give?
Answer: 33*

Question: `C#C[C@]1(O)CC[C@H]2[C@@H]3CCc4cc(O)ccc4[C@H]3CC[C@@]21C` [ETHINYLESTRADIOL] was tested. Which “Sequence Projection Score (SPS)” value did it give?
Answer: 61*

Question: With `CC(=O)N1CCN(c2ccc(OCC3COC(Cn4ccnc4)(c4ccc(Cl)cc4Cl)O3)cc2)CC1` (centres unmarked) [KETOCONAZOLE] as the molecule, how does the “Sequence Projection Score (SPS)” value read?
Answer: 21

Question: `CC#C[C@]1(O)CC[C@H]2[C@@H]3CCC4=CC(=O)CCC4=C3[C@@H](c3ccc(N(C)C)cc3)C[C@@]21C` [MIFEPRISTONE] was tested. Which “Sequence Projection Score (SPS)” value did it give?
Answer: 39*

Question: Which “Sequence Projection Score (SPS)” value does the source give for `CC(C)c1c(C(=O)Nc2ccccc2)c(-c2ccccc2)c(-c2ccc(F)cc2)n1CC[C@@H](O)C[C@@H](O)CC(=O)O` (relative stereo) [ATORVASTATIN, (R—(R*,R*))-2-(4-fluorophenyl)-β,δ-dihydroxy-5-(1-methylethyl)-3-phenyl-4-((phenylamino)carbonyl)-1H-pyrrole-1-heptanoic acid] here?
Answer: 62*

Question: `C[C@]12CC[C@@H]3c4ccc(O)cc4CC[C@H]3[C@@H]1CC[C@@H]2O` [BETA ESTRADIOL] was tested. Which “Sequence Projection Score (SPS)” value did it give?
Answer: 26*

Question: With `CN(Cc1cnc2nc(N)nc(N)c2n1)c1ccc(C(=O)N[C@@H](CCC(=O)O)C(=O)O)cc1` [METHOTREXATE] as the molecule, how does the “Sequence Projection Score (SPS)” value read?
Answer: 17

Question: How did the “Sequence Projection Score (SPS)” value turn out when `CC1=C(CC(=O)O)c2cc(F)ccc2/C1=C\c1ccc([S+](C)[O-])cc1` (centres unmarked) was run?
Answer: 45*

Question: With `OC(Cn1cncn1)(Cn1cncn1)c1ccc(F)cc1F` [FLUCONAZOLE] as the molecule, how does the “Sequence Projection Score (SPS)” value read?
Answer: 63*

Question: `COc1ccc2cc([C@H](C)C(=O)O)ccc2c1` [NAPROXEN] was tested. Which “Sequence Projection Score (SPS)” value did it give?
Answer: 48*

Question: `C[C@]12CC[C@@H]3c4ccc(O)cc4CC[C@H]3[C@@H]1C[C@@H](O)[C@@H]2O` [ESTRIOL] was tested. Which “Sequence Projection Score (SPS)” value did it give?
Answer: 27*

Question: For `O=C(O)Cc1ccccc1Nc1c(Cl)cccc1Cl` [DICLOFENAC], which “Sequence Projection Score (SPS)” value is on record?
Answer: 41*

Question: Which “Sequence Projection Score (SPS)” value does the source give for `Cc1cnc(NC(=O)C2=C(O)c3ccccc3S(=O)(=O)N2C)s1` [MELOXICAM] here?
Answer: 31*

Tested on: livers of rats
Conditions: rat liver histopathology, training-set treatments
Description: as §1
as §2, with “pathologists. Preparation of Enriched mRNA: Punch Biopsies were Taken from the Frozen Tissues and were completely homogenized before being processed using the MagNA Pure robot. (Roche Diagnostics Corp., Indianapolis, Ind.) in combination with the MagNA Pure LC RNA Isolation kit II (Roche Diagnostics Corp). The amount of lysis buffer was adjusted to allow 1 ml per 50 mg for liver tissue, or 1 ml per 80 mg for all other tissues. After complete homogenization and before loading of the samples into the 32-well MagNA Pure plate, the samples were syringed 5-6 times using a 20-gauge 3-ml syringe to ensure a smooth solution for robotic processing. Tissue sample processing was performed in duplicate wells (loading 150 μl of homogenized sample and 150 μl of additional lysis buffer to each well) of the MagNA Pure LC, which is programmed to extract mRNA using oligo-dT selection technology into a final elution volume of 100 μl.” for “pathologists.”

Question: Which “increased hepatocyte enlargement and increased eosinophilic granular cytoplasm” value does the source give for `Clc1ccc(COC(Cn2ccnc2)c2ccc(Cl)cc2Cl)c(Cl)c1` (stereo not drawn) [MICONAZOLE, 1-[2,4-dichloro-β-(2,4-dichlorobenzyloxy)phenethyl]imidazole nitrate] here?
Answer: mild to severe

Same assay, conditions: rat, in vivo

Question: `Clc1ccccc1C(c1ccccc1)(c1ccccc1)n1ccnc1` [CLOTRIMAZOLE, 1-(o-chloro-α,α-diphenylbenzyl)imidazole] was tested. Which “nuclear/cytoplasmic condensation (apoptosis) and/or necrosis in liver” value did it give?
Answer: mild to moderate

Question: What about the steatosis of the same molecule?
Answer: moderate to very severe

Question: For `CCO` [ETHANOL], which steatosis is on record?
Answer: moderate to very severe
